“Also recorded” adds a separate entry of the source.
Tested on: rat model of endotoxin induced uveitis
Assay: Rat model of endotoxin-induced uveitis (EIU), topical or intravitreal treatment
Format: in vivo, female Lewis rats
Conditions: for overall ophthalmic examination score: vs control (BSS) topical
Protocol: An in vivo study was conducted to assess the efficacy of intravitreal administration of compound I-22 in a rat model of endotoxin induced uveitis, one of the most appropriate models for the study of NIU (Smith et al., 1998) (Toxikon Study 16-04078-N1). Ocular inflammation was induced in female Lewis rats (n=10/group) by a single foot pad injection of LPS (100 μL) (Herbort et al., 1988, Graefe's Arch Clin Exp Ophthalmol. 226:553-558). Compound I-22 (5 mg/mL) was administered intravitreally into each eye (25 μg/eye), or topically to both eyes at 1, 3, 7, 10, and 17 hours post-LPS injection, within one hour of LPS administration. Balanced salt solution (BSS) served as a vehicle control. Retinal exams were performed prior to study start and six and 24 hours following LPS administration and scored using a Combined Draize and McDonald Shadduck scoring system, based on assessments of: retinal vasculopathy and retinal hemorrhage, exudate, and detachment.
Endotoxin-induced uveitis was created by a single injection of lipopolysaccharide (LPS; 100 μL) into one hind footpad. Ten (10) female Lewis rats per group received control (balanced salt solution, BSS) or test article (compound I-22) topically to both eyes at 1, 3, 7, 10, and 17 hours post-LPS injection. At each dosing time point, two drops (5 μL each, separated by approximately two minutes, for a total of 10 μL/eye/dose) were instilled into each eye of the animals. Ten female Lewis rats per group received control (BSS) or compound I-22 by a single intravitreal injection (IVT) in each eye at one hour post-LPS injection. Each eye received 5 μL of vehicle or test article.
Animals were anesthetized with isoflurane 1-3.5% for ophthalmic examinations. Both eyes of each animal were evaluated pre-dose using slit-lamp biomicroscopy, and an indirect ophthalmoscope or a surgical microscope, according to the Combined Draize and McDonald-Shadduck Scoring System, and the Ocular Posterior Segment Scoring Scale. All pupils were dilated with 1% tropicamide ophthalmic solution before ocular examination. Only rats showing no signs of eye irritation, ocular defects or preexisting corneal injury were used in the study.
Ophthalmic examinations were performed on both eyes of each animal approximately six and 24 hours following LPS administration, using slit-lamp biomicroscopy and a surgical microscope or via indirect ophthalmoscopy. Pupils were dilated with 1% Tropicamide Ophthalmic Solution before ophthalmic examinations.
Quantitative, continuous data from this study were analyzed using one-way ANOVA. Alternative or additional statistical methods were used as necessary.
In the same study, the efficacy of compound 1-5 was compared to that of compound 1-22. Compound 1-5 was topically administered topically to the eye at hours 1, 3, 7, 10, and 17, after LPS induction, or by a single intravitreal (IVT) injection one hour after LPS induction (n=10 per group), as was compound I-22. Ocular exams were performed 6 and 24 hours after LPS injection. Anterior segments were scored using a combined Draize and McDonald-Shadduck scoring system, and posterior segments were scored using 0 to 1 (vitreous, optic disc, retinal vasculature) and 0 to 4 (retinal and choroidal hemorrhage, exudation, and detachment) scales. Statistical significance from vehicle control was determined by ANOVA, followed by Tukey's post hoc test.

[1] = intravitreal administration, vs vehicles

CC(C)(O)c1cc2oc(-c3ccccc3)nc2cc1N [Compound I-22]
ocular exam scores (IVT, vs vehicle): significantly improved
sums of the mean retinal examination scores (IVT, vs vehicle controls (FIG. 2)): significantly reduced
Total ocular inflammation [1]: lower
anterior chamber inflammation [1]: lower
retina-choroid inflammation [1]: lower
signs of inflammation in the rat EIU model (overall): reduced
response in the EIU model (overall, I-22 compared with I-5): slightly more positive response
ophthalmic examination scores (single IVT injection (25 μg/eye), approximately six and 24 hours post LPS, vs control IVT): significantly lower
ocular exam scores (topical (TO), 6 hours and 24 hours, vs vehicle): significantly improved
Total ocular inflammation score (topical (TO), vs vehicle): lower
anterior chamber inflammation score (topical (TO), vs vehicle): lower
retina-choroid inflammation score (topical (TO), vs vehicle): lower
overall ophthalmic examination score (topical at 1, 3, 7, 10, 17 h post-LPS, approximately six hours post LPS): significantly lower; also recorded: statistically lower
overall ophthalmic examination score (topical, approximately 24 hours post LPS): significantly lower

— US11583529B2, “Treatment of inflammatory disorders” (Aldeyra Therapeutics, Inc., priority 2017, dated 2023)
